Test: xn = mol fraction of the nth substance listed
Settings: 101.3 kPa

CC[n+]1ccn(C)c1.N#C[S-] + CC1COC(=O)O1
Settings	electrical conductivity [S/m]	viscosity [mPa·s]
293.15 K, x1 = 0.0989	1.49	4.213
293.15 K, x1 = 0.4	2.17	9.86
293.15 K, x1 = 0.499	2.06	12.27
293.15 K, x1 = 0.599	1.96	15.04
293.15 K, x1 = 0.7045	1.89	18.06
293.15 K, x1 = 0.796	1.77	20.66
293.15 K, x1 = 0.8942	1.66	23.53
293.15 K, x1 = 1	1.58	26.76
298.15 K, x1 = 0.2045	2.28	5.073
298.15 K, x1 = 0.2984	2.45	6.601
298.15 K, x1 = 0.499	2.25	10.59
298.15 K, x1 = 0.796	1.97	17.73
298.15 K, x1 = 0.8942	1.86	20.22
298.15 K, x1 = 1	1.75	23.11
303.15 K, x1 = 0.0989	1.86	3.259
303.15 K, x1 = 0.2045	2.48	4.415
303.15 K, x1 = 0.2984	2.67	5.742
303.15 K, x1 = 0.4	2.58	7.328
303.15 K, x1 = 0.499	2.47	9.17
303.15 K, x1 = 0.599	2.38	11.19
303.15 K, x1 = 0.7045	2.28	13.39
303.15 K, x1 = 0.796	2.19	15.34
303.15 K, x1 = 0.8942	2.06	17.54
303.15 K, x1 = 1	1.95	20.12
308.15 K, x1 = 0.0989	2.09	2.877
308.15 K, x1 = 0.2045	2.7	3.859
308.15 K, x1 = 0.2984	2.92	4.972
308.15 K, x1 = 0.4	2.82	6.341
308.15 K, x1 = 0.499	2.71	7.916
308.15 K, x1 = 0.599	2.62	9.67
308.15 K, x1 = 0.7045	2.52	11.57
308.15 K, x1 = 0.796	2.42	13.28
308.15 K, x1 = 0.8942	2.29	15.21
308.15 K, x1 = 1	2.17	17.5
313.15 K, x1 = 0.0989	2.32	2.569
313.15 K, x1 = 0.2045	2.94	3.39
313.15 K, x1 = 0.2984	3.17	4.367
313.15 K, x1 = 0.4	3.07	5.56
313.15 K, x1 = 0.499	2.96	6.909
313.15 K, x1 = 0.599	2.87	8.432
313.15 K, x1 = 0.796	2.67	11.58
313.15 K, x1 = 0.8942	2.52	13.32
313.15 K, x1 = 1	2.39	15.32
318.15 K, x1 = 0.0989	2.55	2.299
318.15 K, x1 = 0.4	3.33	4.83
318.15 K, x1 = 0.499	3.22	5.988
318.15 K, x1 = 0.796	2.92	10.18
318.15 K, x1 = 1	2.64	13.45
323.15 K, x1 = 0.0989	2.8	2.074
323.15 K, x1 = 0.2984	3.72	3.34
323.15 K, x1 = 0.4	3.6	4.247
323.15 K, x1 = 0.7045	3.28	7.629
323.15 K, x1 = 0.796	3.18	8.83
323.15 K, x1 = 0.8942	3.03	10.15
323.15 K, x1 = 1	2.89	11.78
328.15 K, x1 = 0.0989	3.05	1.878
328.15 K, x1 = 0.2045	3.72	2.36
328.15 K, x1 = 0.2984	4	2.943
328.15 K, x1 = 0.4	3.88	3.72
328.15 K, x1 = 0.7045	3.55	6.692
328.15 K, x1 = 1	3.15	10.37
333.15 K, x1 = 0.2045	4.02	2.095
333.15 K, x1 = 0.2984	4.29	2.593
333.15 K, x1 = 0.4	4.18	3.284
333.15 K, x1 = 0.499	4.06	4.06
333.15 K, x1 = 0.599	3.96	4.939
333.15 K, x1 = 0.7045	3.84	5.885
333.15 K, x1 = 0.796	3.74	6.792
333.15 K, x1 = 0.8942	3.6	7.876
333.15 K, x1 = 1	3.43	9.21
338.15 K, x1 = 0.2045	4.34	–
338.15 K, x1 = 0.2984	4.61	–
338.15 K, x1 = 0.4	4.47	–
338.15 K, x1 = 0.499	4.35	–
338.15 K, x1 = 0.599	4.26	–
338.15 K, x1 = 0.7045	4.13	–
338.15 K, x1 = 0.796	4.02	–
338.15 K, x1 = 0.8942	3.89	–
338.15 K, x1 = 1	3.72	–
338.18 K, x1 = 0.0989	–	1.557
338.18 K, x1 = 0.2045	–	1.89
338.18 K, x1 = 0.4	–	2.891
338.18 K, x1 = 0.499	–	3.563
338.18 K, x1 = 0.599	–	4.34
338.18 K, x1 = 0.7045	–	5.225
338.18 K, x1 = 0.796	–	6.089
338.18 K, x1 = 0.8942	–	7.068
338.18 K, x1 = 1	–	8.1
343.15 K, x1 = 0.0989	3.88	1.432
343.15 K, x1 = 0.2045	4.67	1.699
343.15 K, x1 = 0.2984	4.92	2.057
343.15 K, x1 = 0.599	4.57	3.859
343.15 K, x1 = 0.7045	4.44	4.651
343.15 K, x1 = 0.796	4.32	5.421
343.15 K, x1 = 0.8942	4.2	6.296

— a compilation of properties of binary mixtures (doi:10.1007/s10953-022-01154-2)
